# Assay results: paper PMC5124248, “Antitumor activity of TY-011 against gastric cancer by inhibiting Aurora A, Aurora B and VEGFR2 kinases” (Journal of Experimental & Clinical Cancer Research : CR, 2016)
# “And” between values parts separate entries of the source, which are not always exact repeats. Identical values can stand only once. “Also recorded” adds a separate entry of the source. Like-named read-outs stand apart in the source and are kept apart here. Marks after values point to notes of the source that are not given here.
# Key:
# Aurora A = molecular target: T1, Aurora A (Homo sapiens, UniProt O14965); assay: HTRF KinEASE-STK kinase assay, Aurora A; type: biochemical
# T1 construct: gift from Professor Jia Li, Shanghai Institute of Materia Medica/Chinese Academy of Sciences
# T1 sequence (O14965 1-403): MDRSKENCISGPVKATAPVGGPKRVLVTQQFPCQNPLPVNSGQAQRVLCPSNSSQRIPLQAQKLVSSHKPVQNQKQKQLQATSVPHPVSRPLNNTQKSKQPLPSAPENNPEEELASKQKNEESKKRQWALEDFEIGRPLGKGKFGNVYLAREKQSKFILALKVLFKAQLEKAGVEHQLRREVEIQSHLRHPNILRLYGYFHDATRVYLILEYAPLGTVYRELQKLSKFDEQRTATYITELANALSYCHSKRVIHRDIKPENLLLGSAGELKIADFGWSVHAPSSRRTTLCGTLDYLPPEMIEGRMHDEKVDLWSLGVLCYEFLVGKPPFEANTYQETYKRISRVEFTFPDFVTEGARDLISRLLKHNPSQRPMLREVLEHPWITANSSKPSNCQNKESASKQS
# Description: The inhibition of TY-011 on activity of Aurora A, Aurora B and VEGFR2 was characterized by HTRF® KinEASE™-STK/TK kit according to the manufacturer’s instructions (Cisbio Assays, Codolet, France). Aurora A and Aurora B were gifts from Professor Jia Li, Shanghai Institute of Materia Medica/Chinese Academy of Sciences. VEGFR2 was purchased from Carna Biosciences (Kobe, Japan).
# SGC-7901 cells = assay: CCK-8 cell proliferation assay, SGC-7901; type: cell-based; conditions: Homo sapiens; SGC-7901, CCK-8, Fig. 3
# Description: (§1) During the logarithmic growth phase, each cell line was seeded in a 96-well tissue culture plate (Thermo Fisher Scientific, Waltham, MA, USA) at a predetermined density in complete medium, attached overnight and treated with compound for the indicated time. The medium was discarded and replaced with 10% CCK-8 (Dojindo, Kumamoto, Japan) in complete medium, then incubated the plates for another 2 h. The OD450 was measured with SpectraMax M5 (Molecular Devices, CA, USA). A background absorbance of ODblank was subtracted from all wells. The survival rate was determined with following formula: Survival rate (%) = ODcompound/ODDMSO × 100%. The IC50 values were calculated by concentration − response curve fitting using the four parameter method.
# AGS cells = assay: CCK-8 cell proliferation assay, AGS; type: cell-based; conditions: Homo sapiens, CCK-8, Fig. 3
# Description: as §1
# MGC-803 cells = assay: Cell cycle analysis by flow cytometry, MGC-803; type: cell-based, human
# Description: Cell cycle distribution was determined by flow cytometry measurement of DNA content after cells were incubated with RNase A (50 μg/ml) and propidium iodide (50 μg/ml). The cellular DNA content was measured on a flow cytometer (Guava EasyCyte 6HT-2 L, Merck Millipore, Billerica, MA, USA). The percentage of each population was analyzed using the InCyte software. At least 20 000 cells were analyzed for each data point.
# human MGC-803 xenograft = assay: Antitumor activity in vivo, MGC-803 xenograft in nude mice; set-up: species or system BALB/c nu/nu mice; conditions: for Inhibition rate (%): by tumor weight; for Body weight (g) End / Body weight (g) Start / Tumor volume (mm^3) End / Tumor volume (mm^3) Start / Tumor weight: mean ± SEM; for Tumor weight: control 0.79 g
# Description: The animals were housed in specific pathogen-free (SPF) conditions at Key Laboratory of Brain Functional Genomics, Ministry of Education, and were acclimatized for a week prior to use. […] When the tumors reached a mean group size of 100 ~ 150 mm^3, the mice were randomized into control and treatment groups to receive treatment accordingly. […] The tumor growth was recorded with the measurement of length (L) and width (W) by caliper every other day, and calculated as tumor volume (V) = L × W^2/2. Meanwhile, the body weights of mice were recorded. The tumor volume at day n was expressed as relative tumor volume (RTV) according to the following formula: RTV% = (TVn/TV0) ×100%, where TVn is the tumor volume at day n and TV0 is the tumor volume at day 0. The therapeutic effect of treatment was calculated with formula T/C (%) = mean RTV of the treated group/mean RTV of the control group × 100%. […] The tumor regression of individual mouse was defined as the tumor volume at the end was less than the tumor volume when treatment was initiated.
# HUVECs [1] = assay: HUVEC tube formation assay; type: cell-based, human; conditions: HUVECs on Matrigel, 6 h
# Description: HUVECs were seeded onto pre-cooled 96-well tissue culture plate coated with Matrigel™ (BD Biosciences, FranklinLakes, NJ). After the cells attached, the cells were treated by various concentration of TY-011 or equivalent amount of DMSO. The plate was incubated at 37 °C, 5% CO2 humidified atmosphere for 6 h, then cell morphology was captured with a microscopy (Olympus IX73, Tokyo, Japan).
# HUVECs [2] = assay: HUVEC growth inhibition, 6 h, CCK-8; type: cell-based, human; conditions: various concentrations
# Description: as §1
# [3] = 3 mg/kg oral once a day for 13 days
# [4] = 6 mg/kg oral once a day for 13 days
# [5] = 9 mg/kg oral once a day for 13 days
smiles,measurement,setting,value
"CCc1cc2c(cn1)C(c1ccccc1Cl)=Nc1c(n[nH]c1C)N2 [TY-011, 9-(2-chloro-phenyl)-6-ephyl-1-methyl-2,4-dihydro-2,3,4,7,10-pentaaza-benzo[f]azulene]",IC50,"Aurora A; Table S1, read-out: IC50 Aurora A",100 nM
same,IC50,"Aurora A; mean ± SD of three independent experiments, read-out: Aurora A IC50",102 ± 10.1 nM
same,IC50,SGC-7901 cells,570 ± 30 nM
same,IC50,AGS cells,960 ± 100 nM
same,G2/M phase cells,"MGC-803 cells; MGC-803, 0.2 μM, 12 h (from 26.4%)",51.4%
same,cells with >4 N DNA content,"MGC-803 cells; MGC-803, 0.2 μM, 48 h",39.8%
same,proportion of cells with >4 N DNA content,"MGC-803 cells; MGC-803, 0.4 μM, 24 h (4.3% no treatment)",29.5%
same,proportion of G2/M phase cells,"MGC-803 cells; MGC-803, 0.4 μM, 24 h (28.8% no treatment)",65.0%
same,T/C (%),human MGC-803 xenograft; [3],54.55%
same,TGI (%),human MGC-803 xenograft; [3],59.41%
same,Inhibition rate (%),human MGC-803 xenograft; [3],64.9%
same,Body weight (g) End,human MGC-803 xenograft; [3],21.8 ± 0.1 g
same,Body weight (g) Start,human MGC-803 xenograft; [3],20.8 ± 0.1 g
same,Tumor volume (mm^3) End,human MGC-803 xenograft; [3],433.6 ± 16.2*** mm^3
same,Tumor volume (mm^3) Start,human MGC-803 xenograft; [3],192.8 ± 7.1 mm^3
same,Tumor weight,human MGC-803 xenograft; [3],0.28 g and 0.28 ± 0.02 g
same,T/C (%),human MGC-803 xenograft; [4],21.82%
same,TGI (%),human MGC-803 xenograft; [4],103.77%
same,tumor regression (share of mice),"human MGC-803 xenograft; 6 mg/kg oral once a day for 13 days, 6/8 mice",75%
same,Inhibition rate (%),human MGC-803 xenograft; [4],87.7%
same,Body weight (g) End,human MGC-803 xenograft; [4],20.3 ± 0.2 g
same,Body weight (g) Start,human MGC-803 xenograft; [4],20.9 ± 0.1 g
same,Tumor volume (mm^3) End,human MGC-803 xenograft; [4],168.8 ± 7.1*** mm^3
same,Tumor volume (mm^3) Start,human MGC-803 xenograft; [4],191.2 ± 6.2 mm^3
same,Tumor weight,human MGC-803 xenograft; [4],0.10 g and 0.10 ± 0.01 g
same,T/C (%),human MGC-803 xenograft; [5],14.53%
same,TGI (%),human MGC-803 xenograft; [5],113.09%
same,tumor regression (share of mice),"human MGC-803 xenograft; 9 mg/kg oral once a day for 13 days, 8/8 mice",100%
same,Inhibition rate (%),human MGC-803 xenograft; [5],89.0%
same,Body weight (g) End,human MGC-803 xenograft; [5],21.7 ± 0.1 g
same,Body weight (g) Start,human MGC-803 xenograft; [5],21.4 ± 0.1 g
same,Tumor volume (mm^3) End,human MGC-803 xenograft; [5],111.4 ± 3.6*** mm^3
same,Tumor volume (mm^3) Start,human MGC-803 xenograft; [5],189.0 ± 4.9 mm^3
same,Tumor weight,human MGC-803 xenograft; [5],0.09 g and 0.09 ± 0.01 g
same,drug-related deaths and body weight of mice,"human MGC-803 xenograft; 3, 6 and 9 mg/kg oral once a day for 13 days",did not affect the body weight of mice; also recorded: did not cause drug-related deaths or any loss in body weight of mice
same,"damages to vital organs (heart, liver, spleen, lung and kidney) or clinical signs","human MGC-803 xenograft; mice treated with TY-011, data not shown",no obvious damages to vital organs
same,tube meshes (tube formation),HUVECs [1],disturbed
same,HUVEC proliferation under tube formation treatment condition,HUVECs [2],didn’t affect HUVEC proliferation
